In BindingDB's records for doi:10.7270/Q2G73C4V (Nmmlsc, 2010) one finds Ki data, which are given here for two compounds.

This experiment deals with T1, Regulator of G-protein signaling 8 (Homo sapiens, UniProt P57771).
T1 sequence (P57771 whole entry): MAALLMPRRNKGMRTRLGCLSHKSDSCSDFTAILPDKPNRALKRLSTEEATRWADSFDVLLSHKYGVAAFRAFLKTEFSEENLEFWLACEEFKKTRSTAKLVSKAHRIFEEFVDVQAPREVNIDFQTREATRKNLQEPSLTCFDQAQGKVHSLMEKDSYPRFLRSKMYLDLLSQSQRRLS
As to the kind of experiment: RGS8-Galphao interaction modulators, SAR follow-up, biochemical, multiplex bead flow cytometry, SAR compounds (AID 2307). For orientation: Flow cytometry measures light scatter and fluorescence of single cells or particles in a stream.

pKi: −log10 of the molar value.

As a reminder, the pKi is the negative decadic logarithm of the Ki, by convention in mol/L. A high value points to a low Ki. With `O=C(COc1ccccc1C(=O)NN=Cc1ccc(O)c(O)c1)NN=Cc1ccc(O)c(O)c1` [N''-[(Z)-(3-hydroxy-4-oxo-1-cyclohexa-2,5-dienylidene)methyl]-2-[2-[[(Z)-(3-hydroxy-4-oxo-1-cyclohexa-2,5-dienylidene)methyl]hydrazo]-2-oxoethoxy]benzohydrazide], the pKi was 7.00. In the case of `NS(=O)(=O)c1ccc(N=NCc2ccc(O)c(O)c2O)c([N+](=O)[O-])c1` [4-[[(E)-(2,3-dihydroxy-4-oxo-1-cyclohexa-2,5-dienylidene)methyl]hydrazo]-3-nitrobenzenesulfonamide], the pKi is 7.70.
